Tests used:
[1] = biological target: T1, Alpha-2C adrenergic receptor (Homo sapiens, UniProt P18825); experiment: DRUGMATRIX: Adrenergic Alpha-2C radioligand binding (ligand: [3H] MK-912); type: cell membranes, Sf9, Membrane; conditions: sf9
T1 sequence (P18825 whole entry): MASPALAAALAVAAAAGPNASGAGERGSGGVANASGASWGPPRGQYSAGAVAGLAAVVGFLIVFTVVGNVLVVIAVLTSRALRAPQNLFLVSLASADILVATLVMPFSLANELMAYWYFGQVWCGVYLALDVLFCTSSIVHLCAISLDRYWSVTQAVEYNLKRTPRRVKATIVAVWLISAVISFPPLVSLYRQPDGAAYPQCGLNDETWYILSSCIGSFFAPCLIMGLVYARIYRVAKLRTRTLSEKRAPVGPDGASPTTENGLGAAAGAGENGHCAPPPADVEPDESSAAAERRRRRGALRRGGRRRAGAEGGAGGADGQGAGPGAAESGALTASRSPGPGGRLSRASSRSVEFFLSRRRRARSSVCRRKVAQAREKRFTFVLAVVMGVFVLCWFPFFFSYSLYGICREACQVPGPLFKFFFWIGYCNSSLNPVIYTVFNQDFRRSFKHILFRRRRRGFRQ

Substance-P receptor = Substance-P receptor (Homo sapiens, UniProt P25103); type: cell membranes, Membrane; conditions: cho; also: in other assays of this panel Not Active means under 50% inhibition at 10 µM
Thromboxane-A synthase = biological target: T2, Thromboxane-A synthase (Homo sapiens, UniProt P24557); experiment: biochemical; type: tissue-based, Platelet; conditions: platelet;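 also: enzyme inhibition assay with PGH2 supplied as substrate; in other assays of this panel Not Active means under 50% inhibition at 10 µM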
T2 sequence (P24557 whole entry): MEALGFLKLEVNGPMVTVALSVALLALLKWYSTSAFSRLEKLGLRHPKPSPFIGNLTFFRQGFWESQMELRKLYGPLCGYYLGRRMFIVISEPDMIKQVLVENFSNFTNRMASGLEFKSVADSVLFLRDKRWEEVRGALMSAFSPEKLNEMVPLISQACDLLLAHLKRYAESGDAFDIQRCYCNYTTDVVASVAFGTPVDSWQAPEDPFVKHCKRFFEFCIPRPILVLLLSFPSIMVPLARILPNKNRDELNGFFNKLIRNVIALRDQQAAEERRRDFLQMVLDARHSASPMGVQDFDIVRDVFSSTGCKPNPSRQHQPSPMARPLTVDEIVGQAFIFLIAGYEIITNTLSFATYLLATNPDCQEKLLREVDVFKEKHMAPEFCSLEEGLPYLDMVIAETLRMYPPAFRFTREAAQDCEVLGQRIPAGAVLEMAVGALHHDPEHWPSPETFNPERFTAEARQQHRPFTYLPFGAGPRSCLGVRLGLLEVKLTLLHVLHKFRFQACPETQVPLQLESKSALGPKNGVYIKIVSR

[2] = DRUGMATRIX: Phosphodiesterase PDE4 enzyme inhibition (substrate: [3H]cAMP + cAMP); conditions: u-937; Not Active = under 50% inhibition at 10 µM
Cathepsin G = biological target: T3, Cathepsin G (Homo sapiens, UniProt P08311); type: tissue-based; conditions: neutrophil;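 also: inhibition of Cathepsin G enzyme activity, tested on an AMC-conjugated peptide substrate; in other assays of this panel Not Active means under 50% inhibition at 10 µM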
T3 sequence (P08311 whole entry): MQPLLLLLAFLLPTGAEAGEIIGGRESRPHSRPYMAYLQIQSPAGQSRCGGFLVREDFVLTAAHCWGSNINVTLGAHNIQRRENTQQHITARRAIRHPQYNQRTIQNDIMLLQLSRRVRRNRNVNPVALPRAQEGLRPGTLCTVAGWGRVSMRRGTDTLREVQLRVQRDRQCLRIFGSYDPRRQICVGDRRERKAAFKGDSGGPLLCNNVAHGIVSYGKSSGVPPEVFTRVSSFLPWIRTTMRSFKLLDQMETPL

Neutrophil elastase = biological target: T4, Neutrophil elastase (Homo sapiens, UniProt P08246); type: tissue-based;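 also: inhibition of neutrophil elastase enzyme activity, measured with a p-nitroanilide-linked peptide substrate; in other assays of this panel Not Active means under 50% inhibition at 10 µM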
T4 sequence (P08246 whole entry): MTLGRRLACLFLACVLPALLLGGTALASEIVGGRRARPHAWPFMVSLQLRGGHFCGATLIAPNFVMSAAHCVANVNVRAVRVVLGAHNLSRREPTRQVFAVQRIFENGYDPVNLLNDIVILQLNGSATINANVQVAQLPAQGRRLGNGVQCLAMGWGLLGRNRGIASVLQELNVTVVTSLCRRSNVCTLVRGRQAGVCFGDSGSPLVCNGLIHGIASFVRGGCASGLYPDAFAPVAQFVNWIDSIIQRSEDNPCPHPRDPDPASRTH

Cytochrome P450 2E1 = Cytochrome P450 2E1 (Homo sapiens, UniProt P05181); conditions: bti-tn-5b1-4; also: in other assays of this panel Not Active means under 50% inhibition at 10 µM
Cytochrome P450 2E1, sequence (P05181 whole entry): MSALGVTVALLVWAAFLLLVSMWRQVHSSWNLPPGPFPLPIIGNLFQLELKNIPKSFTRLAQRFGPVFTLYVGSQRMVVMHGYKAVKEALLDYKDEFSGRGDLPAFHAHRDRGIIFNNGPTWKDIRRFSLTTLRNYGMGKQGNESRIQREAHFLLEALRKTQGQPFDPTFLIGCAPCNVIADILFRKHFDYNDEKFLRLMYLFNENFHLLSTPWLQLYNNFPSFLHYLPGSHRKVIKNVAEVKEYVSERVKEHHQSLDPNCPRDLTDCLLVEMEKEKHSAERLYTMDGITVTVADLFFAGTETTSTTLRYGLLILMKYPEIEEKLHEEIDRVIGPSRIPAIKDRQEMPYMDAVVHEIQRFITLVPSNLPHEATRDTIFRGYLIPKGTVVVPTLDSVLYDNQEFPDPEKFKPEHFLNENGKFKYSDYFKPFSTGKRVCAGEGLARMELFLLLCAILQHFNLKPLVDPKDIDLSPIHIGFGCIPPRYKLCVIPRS

Substance-P receptor, sequence (P25103 whole entry): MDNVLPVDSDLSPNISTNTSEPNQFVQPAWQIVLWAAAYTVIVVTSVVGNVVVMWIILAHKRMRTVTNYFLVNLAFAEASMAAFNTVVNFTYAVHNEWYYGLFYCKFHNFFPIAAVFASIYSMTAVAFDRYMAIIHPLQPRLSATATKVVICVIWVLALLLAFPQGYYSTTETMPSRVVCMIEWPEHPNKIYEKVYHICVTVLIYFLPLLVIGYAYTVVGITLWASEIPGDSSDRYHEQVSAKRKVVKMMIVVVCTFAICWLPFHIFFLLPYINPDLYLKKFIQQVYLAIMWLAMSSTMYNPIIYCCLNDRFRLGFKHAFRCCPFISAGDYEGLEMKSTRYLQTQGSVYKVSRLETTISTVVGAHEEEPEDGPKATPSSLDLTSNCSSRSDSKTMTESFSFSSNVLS

O=P1(N(CCCl)CCCl)NCCCO1 (stereo not drawn) [CYCLOPHOSPHAMIDE ANHYDROUS]
Not Active: IC50 [1] | IC50 (Substance-P receptor) | IC50 (Thromboxane-A synthase) | IC50 [2] | Ki [2] | IC50 (Cathepsin G) | IC50 (Neutrophil elastase) | IC50 (Cytochrome P450 2E1) | Ki (Cytochrome P450 2E1)

O=c1cc(-c2ccccc2)oc2ccc3ccccc3c12 [BETA-NAPHTHOFLAVONE]
Not Active: IC50 [1] | IC50 (Substance-P receptor) | IC50 (Thromboxane-A synthase) | IC50 [2] | Ki [2] | IC50 (Cathepsin G) | IC50 (Neutrophil elastase) | IC50 (Cytochrome P450 2E1) | Ki (Cytochrome P450 2E1)

CC(C)(Sc1cc(C(C)(C)C)c(O)c(C(C)(C)C)c1)Sc1cc(C(C)(C)C)c(O)c(C(C)(C)C)c1 [PROBUCOL]
Not Active: IC50 [1] | IC50 (Substance-P receptor) | IC50 (Thromboxane-A synthase) | IC50 [2] | Ki [2] | IC50 (Cathepsin G) | IC50 (Neutrophil elastase) | IC50 (Cytochrome P450 2E1) | Ki (Cytochrome P450 2E1)

CO[C@@]1(NC(=O)CSCC#N)C(=O)N2C(C(=O)O)=C(CSc3nnnn3C)CS[C@@H]21 [CEFMETAZOLE]
Not Active: IC50 [1] | IC50 (Substance-P receptor) | IC50 (Thromboxane-A synthase) | IC50 [2] | Ki [2] | IC50 (Cathepsin G) | IC50 (Neutrophil elastase) | IC50 (Cytochrome P450 2E1) | Ki (Cytochrome P450 2E1)

CC(=O)O[C@]1(C(C)=O)CC[C@H]2[C@@H]3C=C(C)C4=CC(=O)CC[C@]4(C)[C@H]3CC[C@@]21C [MEGESTROL ACETATE]
Not Active: IC50 [1] | IC50 (Substance-P receptor) | IC50 (Thromboxane-A synthase) | IC50 [2] | Ki [2] | IC50 (Cathepsin G) | IC50 (Neutrophil elastase) | IC50 (Cytochrome P450 2E1) | Ki (Cytochrome P450 2E1)

COc1cc(CNC(=O)CCCC/C=C/C(C)C)ccc1O [CAPSAICIN]
Not Active: IC50 [1] | IC50 (Substance-P receptor) | IC50 (Thromboxane-A synthase) | IC50 [2] | Ki [2] | IC50 (Cathepsin G) | IC50 (Neutrophil elastase) | IC50 (Cytochrome P450 2E1) | Ki (Cytochrome P450 2E1)

CC(C)(C)c1ccc(S(=O)(=O)/C=C/C#N)cc1 [BAY-11-7085]
Not Active: IC50 [1] | IC50 (Substance-P receptor) | IC50 (Thromboxane-A synthase) | IC50 [2] | Ki [2] | IC50 (Cathepsin G) | IC50 (Neutrophil elastase) | IC50 (Cytochrome P450 2E1) | Ki (Cytochrome P450 2E1)

CC[C@H](C)C(=O)O[C@H]1C[C@@H](C)C=C2C=C[C@H](C)[C@H](CC[C@@H]3C[C@@H](O)CC(=O)O3)[C@H]21 [LOVASTATIN]
Not Active: IC50 [1] | IC50 (Substance-P receptor) | IC50 (Thromboxane-A synthase) | IC50 [2] | Ki [2] | IC50 (Cathepsin G) | IC50 (Neutrophil elastase) | IC50 (Cytochrome P450 2E1) | Ki (Cytochrome P450 2E1)

O=C(c1ccccc1Cl)N1CCC(Cc2ccccc2)CC1
Not Active: IC50 [1] | IC50 (Substance-P receptor) | IC50 (Thromboxane-A synthase) | IC50 [2] | Ki [2] | IC50 (Cathepsin G) | IC50 (Neutrophil elastase) | IC50 (Cytochrome P450 2E1) | Ki (Cytochrome P450 2E1)

CCOC(=O)[C@H](CCc1ccccc1)N[C@@H](C)C(=O)N1Cc2ccccc2C[C@H]1C(=O)O
Not Active: IC50 [1] | IC50 (Substance-P receptor) | IC50 (Thromboxane-A synthase) | IC50 [2] | Ki [2] | IC50 (Cathepsin G) | IC50 (Neutrophil elastase) | IC50 (Cytochrome P450 2E1) | Ki (Cytochrome P450 2E1)

CC[C@H]1OC(=O)[C@H](C)[C@@H](O[C@H]2C[C@@](C)(OC)[C@@H](O)[C@H](C)O2)[C@H](C)[C@@H](O[C@@H]2O[C@H](C)C[C@H](N(C)C)[C@H]2O)[C@](C)(O)C[C@@H](C)CN(C)[C@H](C)[C@@H](O)[C@]1(C)O [AZITHROMYCIN]
Not Active: IC50 [1] | IC50 (Substance-P receptor) | IC50 (Thromboxane-A synthase) | IC50 [2] | Ki [2] | IC50 (Cathepsin G) | IC50 (Neutrophil elastase) | IC50 (Cytochrome P450 2E1) | Ki (Cytochrome P450 2E1)

Cc1cccc(Nc2ccccc2C(=O)O)c1C [MEFENAMIC ACID]
Not Active: IC50 [1] | IC50 (Substance-P receptor) | IC50 (Thromboxane-A synthase) | IC50 [2] | Ki [2] | IC50 (Cathepsin G) | IC50 (Neutrophil elastase) | IC50 (Cytochrome P450 2E1) | Ki (Cytochrome P450 2E1)

COC(=O)c1ccccc1O [METHYL SALICYLATE]
Not Active: IC50 [1] | IC50 (Substance-P receptor) | IC50 (Thromboxane-A synthase) | IC50 [2] | Ki [2] | IC50 (Cathepsin G) | IC50 (Neutrophil elastase) | IC50 (Cytochrome P450 2E1) | Ki (Cytochrome P450 2E1)

CC[C@H](C)C(=O)O[C@H]1C[C@H](O)C=C2C=C[C@H](C)[C@H](CC[C@@H](O)C[C@@H](O)CC(=O)O)[C@H]21 [PRAVASTATIN]
Not Active: IC50 [1] | IC50 (Substance-P receptor) | IC50 (Thromboxane-A synthase) | IC50 [2] | Ki [2] | IC50 (Cathepsin G) | IC50 (Neutrophil elastase) | IC50 (Cytochrome P450 2E1) | Ki (Cytochrome P450 2E1)

C[C@]12C/C(=C/O)C(=O)C[C@@H]1CC[C@@H]1[C@@H]2CC[C@@]2(C)[C@H]1CC[C@]2(C)O [OXYMETHOLONE]
Not Active: IC50 [1] | IC50 (Substance-P receptor) | IC50 (Thromboxane-A synthase) | IC50 [2] | Ki [2] | IC50 (Cathepsin G) | IC50 (Neutrophil elastase) | IC50 (Cytochrome P450 2E1) | Ki (Cytochrome P450 2E1)

Clc1cc2c(cc1Cl)Oc1cc(Cl)c(Cl)cc1O2 [2,3,7,8-TETRACHLORODIBENZO-P-DIOXIN]
Not Active: IC50 [1] | IC50 (Substance-P receptor) | IC50 (Thromboxane-A synthase) | IC50 [2] | Ki [2] | IC50 (Cathepsin G) | IC50 (Neutrophil elastase) | IC50 (Cytochrome P450 2E1) | Ki (Cytochrome P450 2E1)

OCCO [ETHYLENE GLYCOL]
Not Active: IC50 [1] | IC50 (Substance-P receptor) | IC50 (Thromboxane-A synthase) | IC50 [2] | Ki [2] | IC50 (Cathepsin G) | IC50 (Neutrophil elastase) | IC50 (Cytochrome P450 2E1) | Ki (Cytochrome P450 2E1)

NC[C@H]1O[C@H](O[C@H]2[C@H](O)[C@@H](O[C@H]3O[C@H](CO)[C@@H](O)[C@H](N)[C@H]3O)[C@H](N)C[C@@H]2N)[C@H](O)[C@@H](O)[C@@H]1O [KANAMYCIN]
Not Active: IC50 [1] | IC50 (Substance-P receptor) | IC50 (Thromboxane-A synthase) | IC50 [2] | Ki [2] | IC50 (Cathepsin G) | IC50 (Neutrophil elastase) | IC50 (Cytochrome P450 2E1) | Ki (Cytochrome P450 2E1)

O=C(/C=C/c1ccc(O)c(O)c1)OCCc1ccccc1 [CAFFEIC ACID PHENETHYL ESTER]
Not Active: IC50 [1] | IC50 (Substance-P receptor) | IC50 (Thromboxane-A synthase) | IC50 [2] | Ki [2] | IC50 (Cathepsin G) | IC50 (Neutrophil elastase) | IC50 (Cytochrome P450 2E1) | Ki (Cytochrome P450 2E1)

NC[C@@H]1O[C@H](O[C@H]2[C@@H](O)[C@H](O[C@@H]3[C@@H](O)[C@H](N)C[C@H](N)[C@H]3O[C@H]3O[C@H](CN)[C@@H](O)[C@H](O)[C@H]3N)O[C@@H]2CO)[C@H](N)[C@@H](O)[C@@H]1O [FRAMYCETIN]
Not Active: IC50 [1] | IC50 (Substance-P receptor) | IC50 (Thromboxane-A synthase) | IC50 [2] | Ki [2] | IC50 (Cathepsin G) | IC50 (Neutrophil elastase) | IC50 (Cytochrome P450 2E1) | Ki (Cytochrome P450 2E1)

CCCCCC[C@H]1C(=O)O[C@H](C)[C@H](NC(=O)c2cccc(NC=O)c2O)C(=O)O[C@@H](C)[C@@H]1OC(=O)CC(C)C [ANTIMYCIN A]
Not Active: IC50 [1] | IC50 (Substance-P receptor) | IC50 (Thromboxane-A synthase) | IC50 [2] | Ki [2] | IC50 (Cathepsin G) | IC50 (Neutrophil elastase) | IC50 (Cytochrome P450 2E1) | Ki (Cytochrome P450 2E1)

Oc1ccccc1O [CATECHOL]
Not Active: IC50 [1] | IC50 (Substance-P receptor) | IC50 (Thromboxane-A synthase) | IC50 [2] | Ki [2] | IC50 (Cathepsin G) | IC50 (Neutrophil elastase) | IC50 (Cytochrome P450 2E1) | Ki (Cytochrome P450 2E1)
